Experimental data published in patent US20100124782A1, “Composition For Repairing Defect In Skin Or Gingival Soft Tissue And Method Of Culturing Autologous Fibroblasts” (Applied Cell Biotechnologies, Inc., priority 2007, published 2010).

System: fibroblasts separated from skin tissue
Assay: Collagen concentration in fibroblast culture supernatant (human collagen ELISA quantitative kit)
Assay type: cell-based
Details: vitamin C (0.01-1 mM) added to the culture medium of skin fibroblasts; unit not given
Protocol: Culture of the fibroblasts separated from skin tissue was carried out according to a well-known method (R. I. Freshney, Culture of Animal Cells: A MANUAL OF BASIC TECHNIQUE (Wiley-Liss, Inc. 2000)). Specifically, the fibroblasts separated from skin tissue were being subcultured, subsequently followed by expansion culture, to be end up to a few T-225 flasks in the end. Vitamin C in the range of 0.01-1 mM was added to the culture medium three days before the end of culture (scheduled day of injection). Furthermore, the culture medium was replaced with a 2-5% self-serum addition culture medium with no vitamin C added. The cultured fibroblasts were exfoliated from a culture vessel with a dispersion liquid with no EDTA solution or enzyme, and the cells were separated from the dispersion liquid by centrifugation. Then, washing in a physiological salt solution were performed more than three times. The collagen concentration contained in the culture supernatant of the fibroblasts cultured in the culture medium with vitamin C added of Example 1 and the culture supernatant with no vitamin C added by the human collagen ELISA quantitative kit (AC Biotechnologies).

Structure (SMILES): O=C1O[C@H]([C@@H](O)CO)C(O)=C1O [vitamin C]
- collagen concentration contained in the culture supernatant: 11.3
